What was measured:
Experiment in all cases: CTG-3D luminescence at 96 h relative to day-0 seeding control (ratio to day 0); higher = more growth / less cytotoxicity; PDxO 3D drug screen, 96 h, CTG-3D normalised to day-0 seeding control.
HCI-005.E2 = test system: HCI-005.E2 (organoid from a breast cancer xenograft with a HER2-positive history)
HCI-008 = test system: HCI-008 (organoid from a HER2-enriched breast cancer xenograft)
HCI-010 = test system: HCI-010 (organoid from a breast cancer xenograft)
HCI-015 = test system: HCI-015 (organoid from a triple-negative breast cancer xenograft)
HCI-012 = test system: HCI-012 (organoid from a breast cancer xenograft)
HCI-019 = test system: HCI-019 (organoid from a triple-negative breast cancer xenograft)
HCI-011.E2 = test system: HCI-011.E2 (organoid from an ER-positive breast cancer xenograft)

CCN(c1cc(C#CCN2CCOCC2)cc(C(=O)NCc2c(C)cc(C)[nH]c2=O)c1C)[C@H]1CC[C@H](N(C)CCOC)CC1
CTG-3D luminescence at 96 h
Conditions | 12.5 pM | 0.00025 µM | 0.005 µM | 0.1 µM | 1 µM | 10 µM | 100 µM | 625 fM
HCI-005.E2 | 1.1 | 1.52 | 1.38 | 1.82 | 1.14 | 1.22 | 1.29 | 1.34
HCI-011.E2 | 1.4 | 1.39 | 1.48 | 1.74 | 1.74 | 2.09 | 2.03 | 1.63

CTG-3D luminescence at 96 h
Conditions | 12.5 pM | 0.00025 µM | 0.005 µM | 0.1 µM | 1 µM | 10 µM | 100 µM | 625 fM
HCI-008, days in culture: 228 | 1.54 | 1.571 | 1.283 | 1.61 | 1.59 | 1.63 | 1.43 | 1.77
HCI-008, days in culture: 244 | 1.38 | 2.13 | 1.81 | 2.04 | 1.7 | 2.31 | 2.04 | 2.47
HCI-010, days in culture: 52 | 1.83 | 2.5 | 2.34 | 2.47 | 2.48 | 2.29 | 1.5 | 2.03
HCI-010, days in culture: 65 | 1.6 | 1.76 | 1.72 | 1.49 | 1.78 | 1.58 | 1.05 | 1.8
HCI-010, days in culture: 103 | 3.17 | 3.22 | 3.07 | 3.35 | 3.09 | 2.84 | 1.88 | 2.7
HCI-011.E2, days in culture: 74 | 1.76 | 2.24 | 2.14 | 1.77 | 1.99 | 3.31 | 2.8 | 1.61
HCI-012, days in culture: 143 | 1.91 | 2.56 | 2.37 | 2.99 | 3.02 | 3.17 | 0.606 | 1.86
HCI-012, days in culture: 162 | 2.51 | 2.39 | 1.97 | 2.73 | 2.39 | 3.19 | 1.69 | 2.39
HCI-012, days in culture: 201 | 2.85 | 2.09 | 1.92 | 2.18 | 2.33 | 1.83 | 2.37 | 1.64
HCI-015, days in culture: 172 | 2.25 | 1.77 | 2.86 | 1.78 | 2.2 | 1.94 | 1.91 | 2.23
HCI-015, days in culture: 191 | 2.6 | 1.59 | 1.92 | 1.44 | 2.09 | 1.44 | 1.13 | 1.91
HCI-015, days in culture: 218 | 1.78 | 1.4 | 2 | 1.49 | 1.67 | 2.02 | 0.907 | 2.07
HCI-019, days in culture: 110 | 2.05 | 1.49 | 1.58 | 2.08 | 1.81 | 2.75 | 2.01 | 2.28
HCI-019, days in culture: 131 | 2.63 | 3.96 | 3.07 | 3.21 | 1.98 | 2.33 | 0.501 | 3.23
HCI-019, days in culture: 152 | 2.5 | 4.04 | 2.16 | 1.89 | 2.77 | 1.9 | 0.188 | 2.36
